From patent US12208108B2, “Drug targets of delayed aging and human brain diseases” (Texas Tech University System, priority 2016, dated 2025)

Columns and labels:
Type in all cases: cell-based, Human
SHSY5Y cells [1] = experiment: Cell viability test (MTT assay)
Description: Cell viability test (MTT assay). Mitochondrial respiration, an indicator of cell viability, was assessed in the SHSY5Y cells from control and experimental treatments (n=4), using the mitochondrial-dependent reduction of 3-(4,5-dimethyl-thiazol-2-yl)-2,5-diphenyl-tetrazolium bromide (MTT) to formazan as described in Manczak et al..

SHSY5Y cells [2] = experiment: Transmission electron microscopy, mitochondrial number and length
Text: Transmission electron microscopy. To determine the effects of DDQ on mitochondrial number and morphology, and any rescual effects of DDQ on mitochondria in the untreated and Aβ treated cells, the inventors used TEM on untreated, DDQ, Aβ+DDQ and DDQ+Aβ, treated SHSY5Y cells.
Transmission electron microscopy. To determine the effects of DDQ on the numbers of mitochondria and any rescue effects of DDQ on mitochondria in the mutant SHSY5Y neurons, the inventors used TEM on untreated and treated SHSY5Y cells (as shown in FIG. 3). [Batches 1-5]. All SHSY5Y cells batches 1-5 were fixed in […] sodium cacodylate (pH 7.2), 2.5% glutaraldehyde, 1.6% paraformaldehyde, 0.064% picric acid and 0.1% ruthenium red. They were gently washed and post-fixed for 1 h in 1% osmium tetroxide plus […] potassium ferricyanide, in 100 mm sodium cacodylate, pH 7.2. After a thorough rinsing in water, the SHSY5Y cells were dehydrated, infiltrated overnight in 1:1 acetone:Epon 812 and infiltrated for 1 h with 100% Epon 812 resin. They were then embedded in the resin. After polymerization, 60 to 80 nm thin sections were cut on a Reichert ultramicrotome and stained for 5 min in lead citrate. They were rinsed and post-stained for 30 min in uranyl acetate and then were rinsed again and dried. Electron microscopy was performed at 60 kV on a Philips Morgagne TEM equipped with a CCD, and images were collected at magnifications of ×1000-37 000. The numbers of mitochondria were counted in the SHSY5Y cells batches 1-5, and statistical significance was determined, using one-way ANOVA.

SHSY5Y cells [3] = experiment: Immunofluorescence analysis of Drp1, synaptophysin and PSD95
Description: Immunofluorescence analysis of Drp1, synaptophysin and PSD95. To determine the effect of Aβ and DDQ on Drp1, synaptophysin and PSD95 levels and localizations, immunofluorescence analysis was performed in cells treated as shown in FIG. 7.
Immunofluorescence analysis. To study immune-reactivity of proteins of interest, cells were grown on coverslips using regular cell culture medium and treated as shown in strategy FIG. 3 and performed immunofluorescence analysis using the antibodies in these treated and untreated cells as described by Manzcak et al. Cells were washed with warm PBS, fixed in freshly prepared 4% paraformaldehyde in PBS for 10 min, and then washed with PBS and permeabilized with 0.1% Triton-X100 in PBS. They were blocked with 1% blocking solution (Invitrogen) for 1 hr at room temperature. All neurons were incubated overnight with primary antibodies. The neurons were incubated with appropriate secondary antibodies. The cells were washed neurons 3 times with PBS, and slides were mounted. Photographs were taken with a multiphoton laser scanning microscope system (ZeissMeta LSM510). To quantify the immunoreactivity of proteins of interest, for each treatment 10-15 photographs were taken at ×20 magnification.

SHSY5Y cells [4] = experiment: Cytochrome oxidase activity
Description: Cytochrome oxidase activity. Cytochrome oxidase activity was measured in the mitochondria isolated from SHSY5Y cells of control and experimental treatments (n=4), as described in Manczak et al.^33. Enzyme activity was assayed spectrophotometrically using a Sigma Kit (Sigma-Aldrich) following manufacturer's instructions.

[5] = Aβ + DDQ (Aβ1-42 20 μM 6 hrs, then DDQ 24 hrs) vs untreated cells
[6] = DDQ 250 nM 24 hrs vs untreated cells
[7] = DDQ + Aβ (DDQ 24 hrs, then Aβ1-42 6 hrs) vs Aβ incubated cells
[8] = DDQ + Aβ (DDQ 24 hrs, then Aβ1-42 6 hrs) vs untreated cells
[9] = DDQ post-treated (Aβ + DDQ) vs cells treated with Aβ alone
[10] = DDQ-pre treated (DDQ + Aβ) vs cells treated with Aβ alone
[11] = Aβ + DDQ (Aβ1-42 6 hrs, then DDQ 24 hrs) vs Aβ treated cells
[12] = DDQ + Aβ (DDQ 24 hrs, then Aβ1-42 6 hrs) vs Aβ treated cells

## CCOP(=O)(OCC)C(NCCc1ccc(O)c(O)c1)c1ccnc2ccccc12 (centres unmarked) [DDQ, diethyl(3,4-dihydroxyphenethylamine)(quinolin-4-yl)methylphosphonate]
SHSY5Y cells [1]; [5]
  Cell viability: unchanged
SHSY5Y cells [1]; [6]
  Cell viability: significantly increased
SHSY5Y cells [1]; [7]
  Cell viability: Significantly increased
SHSY5Y cells [1]; [8]
  Cell viability: unchanged
SHSY5Y cells [2]; [5]
  mitochondrial length: not significantly changed
  number of mitochondria: approximately equal number
SHSY5Y cells [2]; [6]
  mitochondrial length: significantly increased
  number of mitochondria: reduced
SHSY5Y cells [2]; [8]
  mitochondrial length: not significantly changed
  number of mitochondria: approximately equal number
SHSY5Y cells [2]; [9]
  mitochondrial length: significantly increased
  number of mitochondria: significantly reduced
SHSY5Y cells [2]; [10]
  mitochondrial length: significantly increased
  number of mitochondria: significantly reduced
SHSY5Y cells [3]; [11]
  Drp1 levels (immunofluorescence): Significantly reduced levels
  PSD95 levels (immunofluorescence): increased
  synaptophysin levels (immunofluorescence): increased
SHSY5Y cells [3]; [6]
  Drp1 levels (immunofluorescence): decreased Drp1 levels were found in DDQ treated cells relative to untreated cells, but this was not significant
SHSY5Y cells [3]; [12]
  Drp1 levels (immunofluorescence): Significantly reduced levels
  PSD95 levels (immunofluorescence): increased
  synaptophysin levels (immunofluorescence): increased
SHSY5Y cells [4]; [5]
  cytochrome oxidase activity: unchanged
SHSY5Y cells [4]; Aβ + DDQ (Aβ1-42 6 hrs, then DDQ 24 hrs) vs Aβ incubated cells
  cytochrome oxidase activity: increased
SHSY5Y cells [4]; [6]
  cytochrome oxidase activity: significantly increased levels
SHSY5Y cells [4]; [7]
  cytochrome oxidase activity: increased
SHSY5Y cells [4]; [8]
  cytochrome oxidase activity: unchanged
